Values quoted from earlier work, collected in patent US6184217A (Cephalon, Inc., priority 1997, dated 2001).

Assays:
[1] = test system: IL-2 production; settings: cited from earlier work
[2] = test system: smooth muscle contraction; settings: cited from earlier work
[3] = test system: inflammation; settings: cited from earlier work
[4] = test system: protein kinase C (PKC); settings: cited from earlier work
[5] = test system: histamine release; settings: cited from earlier work
[6] = test system: lethality resulting from endotoxin administration; settings: in vivo; cited from earlier work
[7] = test system: smooth muscle MLCK; settings: cited from earlier work
[8] = test system: elongation of neurazone; settings: cited from earlier work

SMILES: COC(=O)C1(O)CC2OC1(C)n1c3ccccc3c3c4c(c5c6ccccc6n2c5c31)C(=O)NC4 (centres unmarked) [Compound K-252a]
- inhibiting IL-2 production [1]: inhibiting IL-2 production
- inhibiting smooth muscle contraction [2]: inhibiting smooth muscle contraction
- anti-inflammatory action [3]: anti-inflammatory action
- inhibition of protein kinase C [4]: strongly inhibits protein kinase C (PKC)
- inhibiting histamine release [5]: inhibiting histamine release
- lethality resulting from endotoxin administration [6]: reduces the lethality resulting from endotoxin administration
- inhibiting smooth muscle MLCK [7]: inhibiting smooth muscle MLCK
- inhibiting elongation of neurazone [8]: inhibiting elongation of neurazone
